Consider 6 molecules from patent publication US20230391808A1, “PHOSPHAPHENALENE-GOLD(I) COMPLEXES AS CHEMOTHERAPEUTIC AGENTS AGAINST GLIOBLASTOMA” (priority 2020, published 2023).

Like-named read-outs stand apart in the source and are kept apart here.

Data set [1] relates to NCH82, NCH89, NCH125, and NCH210 cells. Description: Wound-healing (scratch) assay, tumor cell migration. The class given is cell-based, human. The protocol: Besides an increased tumor cell proliferation, a highly invasive cell growth drives malignancy of GBM. To obtain a more complete picture of the anti-cancer action of the compounds according to the invention, the effects of compound 4 on GBM cell invasion were investigated using a conventional wound-healing assay with NCH82, NCH89, NCH125, and NCH210 cells.
The results of the wound-healing assay are depicted in FIG. 2. […] The cells were imaged at 0 hours (t0) and at 24 hours (t1) after introducing the scrape. Cell migration was assessed by measuring cell-free areas at t0 and their reduction at t1.
To assess the effect of the drugs on cell migration in vitro cells were seeded in 6-well plates (5×10^5/Well) and left to attach. On the next day the cell monolayer was scraped in a straight line to create a “scratch” with a p200 pipet tip. […] Phase contrast images were acquired at 0 h and after 12 h of exposure to the respective drug concentration using a BX50 microscope with a SC30 camera (both Olympus, Tokyo, Japan). The cell-free areas at both time points were quantified and compared using the imaging software cellSens (Olympus, Tokyo, Japan).

Data set [2] relates to NCH82. Description: Annexin V apoptosis assay (flow cytometry), NCH82. Format: cell-based, human. Conditions: drug concentration of 2 μM, 48 hour-incubation (FIG. 3B). The protocol: (§1) Thus, after a 48 hour-incubation period with different concentrations of Compound 4, the conventional GBM cells and GSCs were analyzed by flow cytometry. Annexin V and propidium iodide (PI) were used as indicators for apoptosis/necrosis. In line with the obtained IC50 values listed in Table 2, NCH82 cells appeared to be the most sensitive GBM cell line.
To quantitate the extent of apoptosis and necrosis, either annexin V staining combined with DAPI or double labeling of cells with annexin V and propidium iodide (PI) was used. The double labeling allows the distinction between apoptotic (annexin V^pos/DAPI^neg or annexin V^pos/PI^neg) and necrotic (annexin V^pos/DAPI^pos or annexin V^pos/PI^pos) cells. […]
After treatment supernatant containing apoptotic and necrotic cells was collected, cells were harvested, washed, and up to 1×10^6 cells were incubated with FITC-conjugated annexin V antibody diluted in 1:1000 DAPI solution following manufactures instructions (#51-65874X, BD Bioscienes, Franklin Lakes, USA) or incubated with FITC-conjugated annexin V antibody and PI for 15 min following manufacturer instructions (#51-65974X, BD Biosciences, Franklin Lakes, USA). Cells were acquired by flow cytometry using a BD LSRII flow cytometer (BD Bioscienes, Franklin Lakes, USA) and analyzed by FlowJo Software v7.6.5 (TreeStar, Ahland, USA).
On the technique in general: A flow cytometer gives signals particle by particle.

The subject of data set [3] is NCH89. The experiment in a line: Annexin V apoptosis assay (flow cytometry), NCH89. Format: cell-based, human. The method, then: (§2) It was further analyzed whether Compound 4 could sensitize GBM cells (NCH82 and NCH89) and GSCs (NCH421k, NCH644, and NCH660h) to apoptosis. The increase of apoptotic/necrotic cells with increasing concentrations of Compound 4 is illustrated in FIG. 3.
as §1
(§3) To quantitate the extent of apoptosis and necrosis, either annexin V staining combined with DAPI or double labeling of cells with annexin V and propidium iodide (PI) was used. The double labeling allows the distinction between apoptotic (annexin V^pos/DAPI^neg or annexin V^pos/PI^neg) and necrotic (annexin V^pos/DAPI^pos or annexin V^pos/PI^pos) cells. Cells were seeded in a 6-well plate (2.5×10^5/well) and left to attach overnight. Medium was replaced by fresh medium containing defined drug concentrations or compound solvent DMSO (untreated control) and incubated for 24 h. As positive control cells were treated with 1 μM of the apoptosis-inducing reagent staurosporin (#9953, Cell Signaling Technology, Danvas, USA). […]

Data set [4] has as its system GSCs (NCH421k, NCH644, and NCH660h). The experiment in a line: Annexin V apoptosis assay (flow cytometry), GSCs. Conditions: 48 hour-incubation (FIG. 3C). Format: cell-based, human. The protocol: as §2, §1, §3
Data set [5] is described as follows: Solubility in solvents. The class given is physicochemical. From the text: Importantly, all compounds 1-4 readily dissolved in DMSO/H2O mixtures 1:9. Compound 1 was the least soluble and started to precipitate at concentrations higher than 0.1 M.
In data set [6] the target is thioredoxin reductase (Homo sapiens, UniProt Q16881). As to conditions: Jortzik E. et al. 2014; cited from earlier work.
thioredoxin reductase, sequence (Q16881 151-649 limits assumed): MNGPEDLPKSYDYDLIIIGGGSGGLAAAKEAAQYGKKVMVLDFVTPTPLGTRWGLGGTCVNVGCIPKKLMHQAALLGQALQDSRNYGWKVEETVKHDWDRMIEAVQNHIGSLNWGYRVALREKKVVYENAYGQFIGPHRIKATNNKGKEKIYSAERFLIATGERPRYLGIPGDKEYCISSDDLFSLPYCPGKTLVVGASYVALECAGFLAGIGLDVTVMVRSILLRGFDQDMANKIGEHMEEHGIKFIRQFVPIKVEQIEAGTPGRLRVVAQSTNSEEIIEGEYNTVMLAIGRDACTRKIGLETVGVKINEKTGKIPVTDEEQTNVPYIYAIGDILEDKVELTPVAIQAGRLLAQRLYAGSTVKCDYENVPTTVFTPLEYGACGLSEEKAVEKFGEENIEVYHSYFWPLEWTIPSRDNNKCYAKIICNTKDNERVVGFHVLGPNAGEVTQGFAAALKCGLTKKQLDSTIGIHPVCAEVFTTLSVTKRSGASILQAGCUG
The target in data set [7] is human glutathione reductase (Homo sapiens, UniProt P00390). As to conditions: Jortzik E. et al. 2014; cited from earlier work.
human glutathione reductase, sequence (P00390 44-522): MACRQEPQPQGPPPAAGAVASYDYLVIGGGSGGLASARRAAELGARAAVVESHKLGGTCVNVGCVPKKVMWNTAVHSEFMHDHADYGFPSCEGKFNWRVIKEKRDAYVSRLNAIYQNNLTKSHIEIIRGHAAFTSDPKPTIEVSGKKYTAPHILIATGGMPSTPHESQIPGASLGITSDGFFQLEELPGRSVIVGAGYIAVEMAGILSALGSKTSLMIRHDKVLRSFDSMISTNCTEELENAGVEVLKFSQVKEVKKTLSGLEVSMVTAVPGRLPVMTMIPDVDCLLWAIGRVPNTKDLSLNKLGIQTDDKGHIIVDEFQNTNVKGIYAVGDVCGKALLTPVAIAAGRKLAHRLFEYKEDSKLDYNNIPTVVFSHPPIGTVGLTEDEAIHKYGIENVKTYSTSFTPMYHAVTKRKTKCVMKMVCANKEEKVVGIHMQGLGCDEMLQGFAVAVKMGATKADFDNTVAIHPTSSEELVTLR
Data set [8] can be described thus: Stability in dimethylsulfoxide/H2O solutions. The class given is physicochemical. As to conditions: over weeks.
Data set [9] deals with NCH82. As to conditions: Deponte M. et al. 2005; read-out: IC50, proliferation of NCH82; cited from earlier work.
Data set [10] has as its system NCH89. As to conditions: Deponte M. et al. 2005; read-out: IC50, proliferation of NCH89; cited from earlier work.
Data set [11] deals with NCH82. Description: Crystal violet proliferation assay, NCH82. As to conditions: glioblastoma cell line, 48 h exposure, mean of three biological replicates ± standard deviation. The class given is cell-based, human.
The subject of data set [12] is NCH89. Description: Crystal violet proliferation assay, NCH89. Format: cell-based, human. As to conditions: glioblastoma cell line, 48 h exposure, mean of three biological replicates ± standard deviation.
The test system of data set [13] is NCH149. Description: Crystal violet proliferation assay, NCH149. As to conditions: glioblastoma cell line, 48 h exposure, mean of three biological replicates ± standard deviation. Format: cell-based, human. The protocol: In order to investigate the role of the fused phosphaphenalene ring in the bio-activity of the drug, the ability of Compound 5 to inhibit cell proliferation in the glioblastoma cell lines NCH82, NCH89 and NCH149 was examined. For this purpose, cells were incubated with increasing concentrations of Compound 5 and cell proliferation was evaluated by crystal violet assay.
The effect of different compounds on cell growth was evaluated by the crystal violet method as described earlier (J. P. Rigalli et al., Cancer Lett. 2016, 376, 165-172). Briefly, cells were seeded in 96-well plates (10,000 cells/well). After 24 h cell culture medium was replaced by fresh compound-containing medium (ten different concentrations (0.01 to 200 μM μM)). After 48 h of exposure extent of cell proliferation inhibition was determined by crystal violet staining of surviving cells. Therefore, cells were washed and stained with 0.5% crystal violet solution (2.5 g in 100 ml methanol, diluted with 400 ml aqua bidest) for 15 min, rinsed and dried overnight.
Next, crystal violet was solubilized in methanol and absorbance was measured at 555 nm. The proliferative index was calculated as crystal violet absorption intensity as percentage relative to baseline (no cells) as described before (T. Peters et al., Naunyn Schmiedebergs Arch Pharmacol. 2006, 372, 291-299.) Cell survival plotted against the decimal logarithm of drug concentration in μM (c (of compound x) in μM) and fitted to a sigmoidal dose-response curve using Graph Pad Prism 7.02 (GraphPad Software, San Diego, USA).

Data set [14] in a line: Stability under controlled thermodynamic conditions upon repetitive cycles of illumination. Conditions: data not shown. The class given is physicochemical.

Consider `CC(=O)OCC1OC([S][Au][PH]2(c3ccccc3)c3cscc3-c3cccc4cccc2c34)C(OC(C)=O)C(OC(C)=O)C1OC(C)=O` (stereo not drawn) [Compound 4], for which the “wound closure compared to untreated control cells” value in data set [1] (at least the corresponding IC50 concentrations, 24 hours) is “significantly decreased wound closure”. For the same molecule, the wound closure result in [1] (concentrations c(IC50)/2 and c(IC50)/10, 24 hours) is “not significantly affected”. Besides, the “induction of apoptosis, NCH82” value in [2] is listed as “induced apoptosis in a high percentage of cells”. Besides, in data set [3] (1 μM, 2 μM, and 10 μM for 24 hours (FIG. 3A)), the “apoptotic/necrotic cells, NCH89” value is listed as “dose-dependent increase of apoptotic/necrotic cells”. In addition, the “cell death, NCH89” value in data set [3] (concentration of 2 μM, 48 hour-incubation (FIG. 3B)) is listed as “no cell death”. In addition, the “induction of apoptosis, GSCs” value in data set [4] is reported as “induction of apoptosis could be demonstrated but to a lesser extent”. In addition, in [5], the “solubility in methanol, ethanol, DCM, CHCl3, Et2O and acetone” value is reported as “soluble”; the “solubility in pentane and hexane” value is “insoluble”.
Take “1-phenyl-bis(2-pyridyl)phosphole gold chloride thio-β-d-glucose tetraacetate [GoPI-sugar]”: the IC50 is 0.0043 µM in data set [6] and 0.0885 µM in data set [7].
Turning to `[Cl][Au][PH]1(c2ccccc2)c2cscc2-c2cccc3cccc1c23` [Compound 1], the “concentration above which precipitation starts” value in data set [5] (DMSO/H2O mixtures 1:9) was “higher than 0.1 M”. The “stability in dimethylsulfoxide/H2O solutions” value in data set [8] is recorded as “high stability”.
`[Cl][Au][PH]1(c2ccccc2)C(c2ccccn2)=CC=C1c1ccccn1` [GoPI, [1-phenyl-2,5-di(2-pyridyl)phosphole]AuCl]: the IC50 is 12.5 ± 0.8 µM in data set [9] and 10.8 ± 0.8 µM in [10].
As to `Cn1ccc2c1-c1cccc3cccc(c13)[P+]2([Au-][Cl])c1ccccc1` (stereo not drawn) [Compound 5], the figures for the IC50 in data set [11], in data set [12] and in data set [13] were 8.1 µM, 15.1 µM and 8.87 µM, respectively.
Consider `CC(=O)OC[C@H]1O[C@@H]([S][Au-][P+]2(c3ccccc3)c3ccn(S(=O)(=O)c4ccccc4)c3-c3cccc4cccc2c34)[C@H](OC(C)=O)[C@@H](OC(C)=O)[C@@H]1OC(C)=O` (stereo partly drawn) [Compound 8], for which the IC50 in data set [11] came to 1.37 µM; in data set [12], 4.49 µM; in [13] it was 2.85 µM. Also, the “stability upon repetitive cycles of illumination” value in [14] is “very high stability”.
